How the values were obtained:
SSc fibroblasts = test: Hydroxyproline secretion by SSc fibroblasts treated with glyburide or parthenolide; settings: 100 μM glyburide or 10 μM parthenolide; media of 24 h and further 24 h
Experimental: SSc fibroblasts were cultured in 5 ml of media with 100 μM glyburide (G) or 10 μM parthenolide (P). After 24 h the media was collected and the fibroblasts given an additional 5 ml of media with 100 μM glyburide or 10 μM parthenolide and cultured for a further 24 h. Media from both time points was assayed for hydroxyproline. Three independent experiments were performed in and assayed in triplicate. Data is presented as means±SEM. G=glyburide, P=parthenolide.
SSc fibroblasts were treated for 24 h with 100 μM Glyburide or 10 μM Parthenolide. The media was replaced with fresh after 24 h with 100 μM Glyburide or 10 μM Parthenolide and cultured for an additional 24 h. The culture media was assayed for hydroxyproline.

interleukin-1β = settings: cited from earlier work
SSc dermal fibroblasts [1] = test: Western blot of secreted COL1A1 and COL3A1, SSc dermal fibroblasts; type: cell-based, human; settings: 48 h
Experimental: (§1) Normal human dermal fibroblasts (n=4) were purchased from the Coriell Institute (Camden, N.J.) and normal lung fibroblasts (n=3) were obtained from the University of Pittsburgh. Normal and SSc dermal fibroblasts (750,000 cells/dish) were cultured in DMEM (Mediatech Inc., Manassas Va.) supplemented with 10% FBS (Mediatech) and 1% penicillin/streptomycin (Mediatech). Protein lysates were collected for western blotting and media was collected for ELISA and hydroxyproline assays. SSc fibroblasts were treated with 20 μM caspase-1 inhibitor, Benzyloxycarbonyl-Tyr-Val-Ala-Asp(OMe)-fluoromethylketone (Z-YVAD(OMe)-FMK; Enzo Life Sciences, Plymouth Meeting Pa.) for 48 h. Fibroblasts from NLRP3−/−, and ASC−/− and C57BL/6 mice (Jackson Laboratories, Bar Harbor Me.) were established from skin and were treated with 1 μM bleomycin and 20 μM Z-YVAD(OMe)-FMK for 48 h.
(§2) 30 μl of media was size fractionated on a 5% SDS polyacrylamide gel (Invitrogen, Carlsbad Calif.) and the proteins transferred to a PVDF membrane (Invitrogen). Non-specific binding sites were blocked and then probed with rabbit-anti-human COL1A1, COL3A1, or α-SMA (Santa Cruz Biotechnologies, Santa Cruz Calif.) overnight at 4° C. The membrane was washed and incubated with goat anti-rabbit-HRP (1:5000) (Jackson Immunoresearch, West Grove Pa.). […] The intensity of the bands was measured by ImageJ (http://rsbweb dot nih dot gov/ij/).

fibroblasts = type: cell-based
Experimental: as §1

SSc lung fibroblasts [2] = test: IL-1β secretion by SSc lung fibroblasts (ELISA of media); type: cell-based, human; settings: SSc lung fibroblasts (n=3), 20 μM inhibitor, 48 h; untreated 19.7±0.4
Experimental: as §1
(§3) Media from SSc and normal fibroblasts were assayed by ELISA for IL-1β (Thermo Scientific, Rockford Ill.) and IL-18 (MBL, Woburn Mass.) according to the manufacturer's recommendations. […] The sensitivity of the IL-1β ELISA was 2.6 pg/ml and the sensitivity of the IL-18 was 12 pg/ml.

SSc dermal fibroblasts [3] = test: Western blot of α-SMA in SSc dermal fibroblasts; type: cell-based, human; settings: 48 h
Experimental: 30 μl of media was size fractionated on a 5% SDS polyacrylamide gel (Invitrogen, Carlsbad Calif.) and the proteins transferred to a PVDF membrane (Invitrogen). Non-specific binding sites were blocked and then probed with rabbit-anti-human COL1A1, COL3A1, or α-SMA (Santa Cruz Biotechnologies, Santa Cruz Calif.) overnight at 4° C. The membrane was washed and incubated with goat anti-rabbit-HRP (1:5000) (Jackson Immunoresearch, West Grove Pa.). The HRP signal was developed with SuperSignal Chemiluminescent Substrate (Pierce). The intensity of the bands was measured by ImageJ (http://rsbweb dot nih dot gov/ij/).
80% confluent fibroblasts were cultured in serum free Opti-MEM and transfected with siRNA targeting caspase-1 (Santa Cruz) for 48 h, with an additional transfection of the siRNA duplex after 24 h. Cells were harvested for protein for Western blotting and the media was saved for hydroxyproline and IL-1β and IL-18 measurements and cells were lysed for α-SMA detection.

mouse dermal fibroblasts = test: Hydroxyproline secretion by mouse dermal fibroblasts stimulated with bleomycin; type: cell-based; settings: for hydroxyproline secreted: 48 h
Experimental: as §1
(§4) Total collagen secreted into media was measured by hydroxyproline (Woessner, 1961, Arch Biochem Biophys 93:440-7). Absorbances were read in a spectrophotometer at 550 nm and the concentration of hydroxyproline was determined against a standard curve of hydroxyproline.

SSc dermal fibroblasts [4] = test: Hydroxyproline (total collagen) secretion by SSc dermal fibroblasts; type: cell-based, human; settings: 20 μM inhibitor, 48 h, untreated 18.73±2.33
Experimental: as §1, §4
(§5) 80% confluent fibroblasts were cultured in serum free Opti-MEM and transfected with siRNA targeting caspase-1 (Santa Cruz) for 48 h, with an additional transfection of the siRNA duplex after 24 h. […]

[5] = test system: SSc dermal myofibroblasts; test: Immunofluorescence of α-SMA and f-actin in SSc dermal myofibroblasts; type: cell-based, human; settings: 48 h
Experimental: SSc dermal fibroblasts were cultured in chamber slides to 80% confluency and treated with Z-YVAD(OMe)-FMK for 48 h, air dried then fixed with 4% paraformaldehyde for 20 min. Slides were washed with 1×PBS and blocked with 5% goat serum. Primary antibody to α-SMA (1:100, Clone #1A4, Abcam, Cambridge Mass.) and applied to the cells for 40 min, then washed in PBS. Cy2-conjugated goat-anti-mouse (1:200, Jackson ImmunoResearch, West Grove Pa.) was applied to the cells for 40 min, and then washed. Rhodamine phalloidin (1:100, Cytoskeleton, Denver Colo.) was applied to the cells for 15 min, then the cells were washed with PBS, counterstained with DaPI (Invitrogen), visualized with a Nikon Eclipse 80i epi-fluorescent microscope, and photographed at 400× magnification. All images (red for f-actin, green for α-SMA, and triple for simultaneous detection of f-actin, α-SMA and nuclei) were captured at 6 sec, Gain=2, Gamma=0.5.

SSc dermal fibroblasts [6] = test: IL-1β secretion by SSc dermal fibroblasts (ELISA of media); type: cell-based, human; settings: SSc dermal fibroblasts (n=4), 20 μM inhibitor, 48 h, untreated 41.1±5.6
Experimental: as §1, §3, §5

SSc lung fibroblasts [7] = test: Western blot of secreted COL1A1 and COL3A1, SSc lung fibroblasts; type: cell-based, human; settings: 48 h
Experimental: as §1, §2

SSc dermal fibroblasts [8] = test: IL-18 secretion by SSc dermal fibroblasts (ELISA of media); type: cell-based, human; settings: SSc dermal fibroblasts (n=4), 20 μM inhibitor, 48 h; untreated 23.9±1.0
Experimental: as §1, §3, §5

SSc lung fibroblasts [9] = test: IL-18 secretion by SSc lung fibroblasts (ELISA of media); type: cell-based, human; settings: SSc lung fibroblasts (n=3), 20 μM inhibitor, 48 h; untreated 743.9±6.4
Experimental: as §1, §3

SSc lung fibroblasts [10] = test: Hydroxyproline (total collagen) secretion by SSc lung fibroblasts; type: cell-based, human; settings: 20 μM inhibitor, 48 h, untreated 216.1±18.5
Experimental: as §1, §4

[11] = test system: other members of the interleukin-1 family, including interleukin-1 alpha; settings: cited from earlier work
[12] = test system: mouse models of acute gout; settings: in vivo; cited from earlier work
[13] = test system: C57Bl/6, NLRP3−/− and ASC−/− mice; test: Murine bleomycin-induced model of fibrosis (skin thickness, lung pathology); type: in vivo, mouse
Experimental: All animals were housed in the University Laboratory Animal facility and fed ad libitum. Pathogen free C57Bl/6 mice (n=7) were purchased from Jackson Laboratories. […] Seven untreated C57BL/6 mice were assessed for skin thickness and lung pathology. Dermal fibrosis was induced by daily subcutaneous administration of 100 μl of a 1 mg/ml of bleomycin (BioMol, Plymouth Meeting Pa.) in the flank for 28 days. At the same time 100 μl sterile PBS was administered by subcutaneous injection in the contralateral flank of the same mouse according to the method of Yamamoto et al. (Yamamoto et al., 1999, J Invest Dermatol 112:456-62). Mice were euthanized and tissue from both injection sites was harvested, along with lung tissue. Tissues were fixed, embedded in paraffin, and sectioned onto positively charged slides, then stained with Masson's Trichrome and photographed. Collagen was measured in the skin from just below the epidermis to the fat layer. Two images were taken at 100× magnification. Six measurements were taken for each image using the Advanced SpotCam software and expressed as skin thickness in microns±SEM and fold change in skin thickness.

For COc1ccc(Cl)cc1C(=O)NCCc1ccc(S(=O)(=O)NC(=O)NC2CCCCC2)cc1 [Glyburide, 5-chloro-N-(4-[N-(cyclohexylcarbamoyl)sulfamoyl]phenethyl)-2-methoxybenzamide], the “hydroxyproline secretion by SSc fibroblasts” value (SSc fibroblasts) was “significantly reduce”.
In the case of CSc1ccc(-c2nn(Cc3ccccc3)c(=O)cc2-c2ccc(Cl)cc2)cc1 [K-832, 2-benzyl-5-(4-chlorophenyl)-6-[4-(methylthio)phenyl]-2H-pyridazin-3-one], the “inhibitory activity against production of interleukin-1β” value (interleukin-1β) is listed as “high inhibitory activity”.
With COC(=O)C[C@H](NC(=O)[C@H](C)NC(=O)[C@@H](NC(=O)[C@H](Cc1ccc(O)cc1)NC(=O)OCc1ccccc1)C(C)C)C(=O)CF [Z-YVAD(OMe)-FMK, Benzyloxycarbonyl-Tyr-Val-Ala-Asp(OMe)-fluoromethylketone] the “Secreted COL1A1 protein (densitometry)” value (SSc dermal fibroblasts [1]; untreated 11.4±1.3 AU) was 8.9±1.0 AU, the “COL3A1 protein (densitometry)” value (SSc dermal fibroblasts [1]; untreated 14.7±3.1 AU) was 8.6±2.5 AU and the “apoptosis” value (fibroblasts) was “did not interfere with cell proliferation or induce apoptosis”. For the same compound, the IL-1β secreted (SSc lung fibroblasts [2]) was 7.2 ± 0.2 pg/mL, the “Decrease of α-smooth muscle actin by Western” value (SSc dermal fibroblasts [3]; after normalization for β-actin) was “approximately 50%” and the “α-SMA protein by Western, normalized for β-actin loading” value (SSc dermal fibroblasts [3]; untreated 1.07±0.15) was 0.54±0.14. The hydroxyproline secreted (mouse dermal fibroblasts; C57BL/6 fibroblasts, 1 μM bleomycin plus 20 μM inhibitor) was 5.9 ± 0.7 µg/mL, the hydroxyproline secreted (SSc dermal fibroblasts [4]) was 5.19 ± 0.94 µg/mL and the “F-actin MFI” value ([5]; SSc dermal cells, untreated 37.8±3.09) was 39.6±2.9 MFI. For the same compound, the “F-actin staining” value ([5]; SSc dermal myofibroblasts) was “unaffected”, the “Mean fluorescent intensity (MFI) of α-SMA after correction for f-actin MFI” value ([5]; SSc dermal myofibroblasts, untreated 1.03±0.05) was 0.68±0.04 and the “Mean fluorescent intensity of α-SMA” value ([5]; SSc dermal myofibroblasts, untreated 38.9±2.4) was 27.6±2.5. The IL-1β secreted (SSc dermal fibroblasts [6]) was 12.0 ± 1.6 pg/mL, the IL-1β secreted (SSc dermal fibroblasts [6]; listed as YVAD) was 12.0 pg/mL and the “COL1A1 secretion” value (SSc lung fibroblasts [7]; p=0.051) was “trend for the reduction”. For the same compound, the “COL3A1 protein (densitometry)” value (SSc lung fibroblasts [7]; untreated 12.3±3.8 AU) was 5.5±1.2 AU, the IL-18 secreted (SSc dermal fibroblasts [8]) was 15.2 ± 1.5 pg/mL and the IL-18 secreted (SSc lung fibroblasts [9]) was 311.6 ± 18.5 pg/mL. The hydroxyproline secreted (SSc lung fibroblasts [10]) was 132.0 ± 22.8 µg/mL.
For “Canakinumab: a human monoclonal antibody targeted at interleukin-1 beta”, the “cross-reactivity with other members of the interleukin-1 family” value [11] is listed as “no cross-reactivity”.
In the case of “XOMA-052: a potent anti-IL-1β humanized neutralizing antibody”, the “activity in mouse models of acute gout” value [12] is listed as “active”.
For bleomycin, the “hydroxyproline secretion” value (mouse dermal fibroblasts; ASC−/− and NLRP3−/− fibroblasts, 1 μM bleomycin, p>0.43) was “not induced”, the hydroxyproline secreted (mouse dermal fibroblasts; C57BL/6 fibroblasts stimulated with 1 μM bleomycin, unstimulated 10.6±3.8) was 42.8 ± 2.9 µg/mL and the “fold induction of skin thickness” value ([13]; ASC−/− mice, bleomycin vs PBS injected skin) was 1.06 fold. For the same compound, the average skin thickness ([13]; C57Bl/6 mice, bleomycin 100 μg daily s.c. 28 days, PBS injected skin 320.7±40.6) was 504.4±66.7 microns, the “fold increase in skin thickness” value ([13]; C57Bl/6 mice, bleomycin vs PBS injected skin) was 1.54±0.11 fold and the “fold induction of skin thickness” value ([13]; NLRP3−/− mice, bleomycin vs PBS injected skin) was 1.10 fold. The “lung pathology” value ([13]; wild-type C57Bl/6 mice, bleomycin s.c. 28 days) was “developed extensive pulmonary fibrosis”.

Source: patent US20140314746A1, “METHODS FOR TREATING OR PREVENTING FIBROSIS IN SUBJECTS AFFLICTED WITH SCLERODERMA” (Philadelphia Health and Education Corporation, d/b/a Drexel …, priority 2013, published 2014)
